Test results published in patent US10703756B2, “Pyrrolo[2,3-D]pyrimidinyl, pyrrolo[2,3-B]pyrazinyl, pyrrolo[2,3-B]pyridinyl acrylamides and epoxides thereof” (Pfizer Inc., priority 2015, dated 2020).

Columns and labels:
JAK3 enzyme [1] = target: T1, JAK3 enzyme (Homo sapiens, UniProt P52333); assay: JAK Caliper Enzyme Assay at 4 μM ATP; assay type: biochemical
T1 sequence (P52333 1-1124): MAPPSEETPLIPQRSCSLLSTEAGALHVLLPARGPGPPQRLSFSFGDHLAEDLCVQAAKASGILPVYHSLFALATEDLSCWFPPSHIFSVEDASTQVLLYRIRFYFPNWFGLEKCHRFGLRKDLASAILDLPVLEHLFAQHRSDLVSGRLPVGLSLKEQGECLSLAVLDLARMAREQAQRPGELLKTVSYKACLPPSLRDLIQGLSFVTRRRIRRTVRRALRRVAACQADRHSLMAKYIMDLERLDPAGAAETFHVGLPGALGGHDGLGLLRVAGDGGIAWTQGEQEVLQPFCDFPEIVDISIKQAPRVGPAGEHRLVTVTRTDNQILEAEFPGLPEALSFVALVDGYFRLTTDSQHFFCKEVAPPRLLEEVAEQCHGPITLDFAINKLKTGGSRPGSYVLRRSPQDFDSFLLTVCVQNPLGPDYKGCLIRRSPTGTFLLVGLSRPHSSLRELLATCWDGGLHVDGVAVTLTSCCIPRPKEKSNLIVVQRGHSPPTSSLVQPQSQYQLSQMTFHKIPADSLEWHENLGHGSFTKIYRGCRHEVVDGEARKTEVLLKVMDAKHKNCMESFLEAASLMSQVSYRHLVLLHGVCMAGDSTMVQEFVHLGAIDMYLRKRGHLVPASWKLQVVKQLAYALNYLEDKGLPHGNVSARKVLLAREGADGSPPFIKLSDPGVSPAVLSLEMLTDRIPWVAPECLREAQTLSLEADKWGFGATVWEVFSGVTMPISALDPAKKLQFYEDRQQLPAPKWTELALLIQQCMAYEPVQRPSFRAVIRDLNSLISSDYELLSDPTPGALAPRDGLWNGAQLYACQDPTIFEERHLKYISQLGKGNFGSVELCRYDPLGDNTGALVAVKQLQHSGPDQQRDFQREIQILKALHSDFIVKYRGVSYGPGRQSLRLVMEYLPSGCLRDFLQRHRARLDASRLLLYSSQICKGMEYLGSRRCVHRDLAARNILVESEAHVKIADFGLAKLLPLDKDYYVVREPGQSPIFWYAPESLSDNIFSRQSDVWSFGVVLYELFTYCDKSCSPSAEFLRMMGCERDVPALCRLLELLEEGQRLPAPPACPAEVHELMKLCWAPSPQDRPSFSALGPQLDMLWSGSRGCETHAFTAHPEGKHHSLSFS
Summary of the method: (§1)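 Kinase activity is measured by separating phosphorylated from unphosphorylated peptide on a microfluidic chip. Per enzyme batch, protein concentration and incubation time are optimized to give 20%-30% substrate turnover.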

[2] = tested on: IL-15 induced P-STAT5 in human PBMC; assay: PBMC IL-15 Induced P-STAT5; assay type: cell-based; settings: human PBMC, IL-15 final 41 ng/mL; read-out: PBMC IL15_pSTAT5_IC50
Procedure: PBMC IL-15 Induced P-STAT5
Test compounds were serially diluted in DMSO, with further dilution of the compounds in RPMI 1640 medium (Invitrogen #72400) supplemented with 10 mM HEPES, pH 7.4, 1 mM sodium pyruvate, and Penicillin/Streptomycin (by adding 5 μL compound/DMSO in 120 μL Dulbecco's Phosphate-Buffered Saline (D-PBS, 1×), [DMSO]=4%, and mixing the solution by repeated pipetting, 6×). IL-15 was diluted to the concentration at 820 ng/mL in RPMI 1640 medium.
Frozen human PBMC (200-250 million cells/vial) was thawed at 37° C. The cells were transferred to 10 mL warm medium in a 50-mL conical tube, and centrifuged at 1,200 RPM at room temperature for 5 min. The supernatant was aspirated. Cells were suspended in 3 mL warm human plasma and incubated at 37° C. in a tissue culture incubator for 1.5 to 2 h. After adding 47 ml D-PBS (37° C.) to PBMC/FBS suspension, centrifuging at 1,200 RPM at room temperature for 5 min, and aspirating the supernatant, the cells were resuspended in 20 mL warm RPMI medium. Ninety μL of cell suspension were pipetted per well in a 96-well, deep-well, V-bottom plate, and the plate was incubated at 37° C. for 30 min. Five μL of compound were transferred to each well (final 0.2% DMSO), vortex gently and incubate at 37° C. for 15 min; 5 μL 4% DMSO/PBS were added to the control wells. After adding 5 μL 820 ng/mL of human IL-15 (final 41 ng/mL) to each well (5 μL PBS to the control wells), vortexing gently and incubating at 37° C. for 15 min, followed by 0.3 mL 1% paraformaldehyde/PBS (37° C.) to each well, and incubating the plate at room temperature for 15 min, the plates were centrifuged at 1,200 RPM (Beckman GS-6R or Sorvall Legend) at room temperature for 5 min, and the supernatant was aspirated using a 8-channel or 12-channel manifold. After adding 0.8 mL staining buffer per well, the plates were centrifuged at 1,200 RPM (Beckman GS-6R or Sorvall Legend) at room temperature for 5 min, and again the supernatant was aspirated using a 8-channel or 12-channel manifold. The plate was vortexed, and 0.35 mL 90% methanol/10% H2O (−20° C.) was added per well, and the plate incubated on ice for 20 min. After again adding 0.8 mL staining buffer per well, the plates were centrifuged at 1,200 RPM (Beckman GS-6R or Sorvall Legend) at room temperature for 5 min, and again the supernatant was aspirated using a 8-channel or 12-channel manifold, and then 0.8 mL Staining buffer was added per well. After once again adding 0.8 mL staining buffer per well, the plates were centrifuged at 1,200 RPM (Beckman GS-6R or Sorvall Legend) at room temperature for 5 min, and again the supernatant was aspirated using a 8-channel or 12-channel manifold. Then the plate was vortexed, and 250 μL/well of Alexa Fluor® 647 conjugated anti-STAT5 antibody ([…]; […]) was added, and the plate was incubated at 4° C. overnight in the dark. Samples of 250 μL/well were transferred to a 96-well U-bottom plate, and the FACS analysis was performed gating on total lymphocytes. Samples were analyzed using a BD Calibur™ or BD FACSCanto™ flow cytometer equipped with the BD High Throughput Sampler.

JAK3 enzyme [3] = target: T1, JAK3 enzyme; assay: JAK Caliper Enzyme Assay at 1 mM ATP; assay type: biochemical
Summary of the method: as §1

| Structure (SMILES) | IC50 (JAK3 enzyme [1]) [nM] | IC50 (JAK3 enzyme [3]) [nM] | IC50 [2] [nM] |
| --- | --- | --- | --- |
| C=CC(=O)N1C[C@H](Nc2ncnc3[nH]ccc23)CC[C@@H]1[C@H](C)O (racemic) [Example 112] | 1.03 | 181 | 1010 |
| C=CC(=O)N1CCN(c2cnc3[nH]cc(C(=O)NC(COC)COC)c3n2)CC1(C)C (racemic) [Example 140, Racemic-2-(4-acryloyl-3,3-dimethylpiperazin-1-yl)-N-(1,3-dimethoxypropan-2-yl)-5H-pyrrolo[2,3-b]pyrazine-7-carboxamide] | 2.71 | 384 | 1710 |
| C=CC(=O)N1CCC(Oc2cnc3[nH]cc(C(=O)NCC4(O)CCCC4)c3n2)CC1 (racemic) [Example 206, Racemic-2-[(1-acryloylpiperidin-4-yl)oxy]-N-[(1-hydroxycyclopentyl)methyl]-5H-pyrrolo[2,3-b]pyrazine-7-carboxamide] | 2.79 | 325 | 3100 |
| C=CC(=O)N1CCC(Oc2cnc3[nH]cc(C(=O)NC(CC)C4(O)CCC4)c3n2)CC1 (racemic) [Example 213, Racemic-2-[(1-acryloylpiperidin-4-yl)oxy]-N-[1-(1-hydroxycyclobutyl)propyl]-5H-pyrrolo[2,3-b]pyrazine-7-carboxamide] | 3.07 | 343 | 1720 |
| C=CC(=O)N1CCC(Oc2cnc3[nH]cc(C(=O)NCC4(O)CCCC(F)(F)C4)c3n2)CC1 (racemic) [Example 223, Racemic-2-[(1-acryloylpiperidin-4-yl)oxy]-N-[(3,3-difluoro-1-hydroxycyclohexyl)methyl]-5H-pyrrolo[2,3-b]pyrazine-7-carboxamide] | 4.13 | 344 | 3330 |
| C=CC(=O)N1CC[C@H](Oc2cnc3[nH]cc(C(=O)NCC)c3n2)[C@@H](C)C1 (single isomer, unassigned) [Example 48] | 49.1 | 3060 | 6690 |
| C=CC(=O)N1C[C@H](CC#N)C[C@H](Nc2ncnc3[nH]ccc23)C1 (single isomer, unassigned) [Example 107] | 11.8 | 1240 | 8260 |
| C=CC(=O)N1CCC(Oc2cnc3[nH]cc([C@@H](C)O)c3n2)CC1 (single isomer, unassigned) [Example 119] | 34.2 | 3930 | 9310 |
| C=CC(=O)N1CC[C@H](Nc2cnc3[nH]cc(C(=O)N[C@H](C)COC)c3n2)C[C@@H]1C (stereo in doubt) [Example 354, 2-(((2S,4S)-1-Acryloyl-2-methylpiperidin-4-yl)amino)-N—((R)-1-methoxypropan-2-yl)-5H-pyrrolo[2,3-b]pyrazine-7-carboxamide] | 3.41 | 261 | 4520 |

Continued, in another order:

| IC50 (JAK3 enzyme [1]) [nM] | IC50 (JAK3 enzyme [3]) [nM] | Structure (SMILES) | IC50 [2] [nM] |
| --- | --- | --- | --- |
| 1.67 | 255 | C[C@H]1CC[C@@H](Nc2ncnc3[nH]ccc23)CN1C(=O)C1CO1 (mixture of isomers) [Example 132, Racemic-[(2S,5R)-2-methyl-5-(7H-pyrrolo[2,3-d]pyrimidin-4-ylamino)piperidin-1-yl](oxiran-2-yl)methanone] | 524 |
| 0.794 | 103 | C=CC(=O)N1CCN(c2cnc3[nH]cc(C(=O)NC(CC)COC)c3n2)CC1(C)C (racemic) [Example 141, Racemic-2-(4-acryloyl-3,3-dimethylpiperazin-1-yl)-N-(1-methoxybutan-2-yl)-5H-pyrrolo[2,3-b]pyrazine-7-carboxamide] | 347 |
| 0.526 | 63 | C=CC(=O)N1CCC(C)(Nc2cnc3[nH]cc(C(=O)NCC(C)CC(F)(F)F)c3n2)CC1 (racemic) [Example 270, Racemic-2-[(1-acryloyl-4-methylpiperidin-4-yl)amino]-N-(4,4,4-trifluoro-2-methylbutyl)-5H-pyrrolo[2,3-b]pyrazine-7-carboxamide] | 670 |
| 2.45 | 359 | C=CC(=O)N1CCC(Nc2cnc3[nH]cc(C(=O)NCCCC(F)(F)F)c3n2)CC1C (racemic) [Example 282, Racemic-2-[(1-acryloyl-2-methylpiperidin-4-yl)amino]-N-(4,4,4-trifluorobulyl)-5H-pyrrolo[2,3-b]pyrazine-7-carboxamide] | 3090 |
| 2.08 | 170 | C=CC(=O)N1CCC(Nc2cnc3[nH]cc(C(=O)NCC(C)CC(F)(F)F)c3n2)CC1C (racemic) [Example 310, Racemic-2-[(1-acryloyl-2-methylpiperidin-4-yl)amino]-N-(4,4,4-trifluoro-2-methylbutyl)-5H-pyrrolo[2,3-b]pyrazine-7-carboxamide] | 1200 |
| 2.16 | 182 | C=CC(=O)N1CCC(Nc2cnc3[nH]cc(C(=O)NC4CCC4)c3n2)CC1C (racemic) [Example 320, Racemic-2-[(1-acryloyl-2-methylpiperidin-4-yl)amino]-N-cyclobutyl-5H-pyrrolo[2,3-b]pyrazine-7-carboxamide] | 1250 |
| 2.12 | 367 | C=CC(=O)N1CC[C@H](Nc2cnc3[nH]cc(C(=O)NCC)c3n2)C[C@@H]1C (racemic) [Example 349, 2-(((2S,4S)-1-acryloyl-2-methylpiperidin-4-yl)amino)-N-ethyl-5H-pyrrolo[2,3-b]pyrazine-7-carboxamide] | 2930 |
| 1.65 | 99 | C=CC(=O)N1CC[C@@H](Nc2cnc3[nH]cc(C(=O)NCC)c3n2)[C@H](OC)C1 (single isomer, unassigned) [Example 26] | 1930 |
| 1.04 | 152 | C=CC(=O)N1C[C@@H](Nc2ncnc3[nH]ccc23)CC[C@H]1CNC(C)=O (single isomer, unassigned) [Example 90] | 3220 |
